The subject of experiment [1] is WRL68 cells. The experiment can be described thus: MTT cytotoxicity assay. The note with it: Homo sapiens, mean ± SEM (n = 9). In kind it is cell-based. As to the method: MTT assay was performed as described by Pérez-Jiménez et al.. Briefly, samples containing 200 µL cell suspension (1 × 10^4 cells/well) were cultured in 96 well plates, in triplicate of three populations of the both cell lines. Subsequent to adherence of the cells within 12 h of incubation, Uvaol was added to the wells at a concentration between 0–140 μg/mL and maintained during 24, 48 and 72 h. MTT was dissolved in the medium and added to the wells at a final concentration of 0.5 mg/mL. Following 2 h of incubation, the generated formazan was dissolved in DMSO. Absorbance was measured at 570 nm in a multiplate reader (Bio-tek®, Winooski, VT, USA). The concentrations that caused 20%, 50% and 80% of inhibition of cell viability (IC20, IC50 and IC80) were calculated following the formula: % […] = (A0 − AT)/A0·100, where A0 is the control absorbance (100% of cell viability) and AT is de absorbance of the incubated cells with the different concentrations of uvaol. OriginPro 8 (OriginLab Corporation, Northampton, MA, USA) was used to performance a dose-response analysis by the following formula: y=A1+ A2− A1/1+10^(Log x0−x)p
In which Logx0 is the center of the curve, p the slope, A1 the lower asymptote and A2 the upper asymptote in the adjustment model described.

Experiment [2] deals with HepG2 cells. The experiment can be described thus: Muse Annexin V & Dead Cell apoptosis assay. In kind it is cell-based, human. Conditions: HepG2, uvaol IC50, 24 h. As to the method:
(§1) A total of 1.5 × 10^5 cells were seeded per well in 24-well plates for each cell line (quadruplicates for three different populations of each cell line). […] Negative control populations were incubated only with the appropriate culture medium. The samples were analyzed in the Muse^TM Cell Analyzer (Merck-Millipore®, Burlington, MA, USA). Phosphatidylserine (PS) is a phospholipid that is usually found in the inner half of the cytoplasmic membrane, but is outsourced when loss of integrity occurs in the apoptosis process. The method is based on the recognition and binding to the PS exposed by annexin V protein, labeled with a fluorescent substance to detect the interaction and quantify it. We used the Muse^TM Annexin V & Dead Cell kit purchased from Millipore (Billerica, MA, USA), which provides the percentage of viable cells, apoptotic and affected by necrosis.

Experiment [3] relates to WRL68 cells. The experiment can be described thus: Muse Annexin V & Dead Cell apoptosis assay. In kind it is cell-based, human. The note with it: WRL68, uvaol IC50, 24 h. As for the experimental part: as §1
In experiment [4] the test system is HepG2 cells. In words: Muse Oxidative Stress kit, ROS production. In kind it is cell-based, human. The note with it: HepG2, IC50, 24 h. As to the method: (§2) A total of 1.5 × 10^5 cells were seeded per well in 24-well plates for each cell line (quadruplicates for three different populations of each cell line). […] Negative control populations were incubated only with the appropriate culture medium. The samples were analyzed in the Muse^TM Cell Analyzer (Merck-Millipore®, Burlington, MA, USA). The method is based on the use of dihydroetide (DHE), a reagent capable of crossing the cell membrane and interacting with superoxide anions, a type of ROS. In this process, DHE oxidizes and forms the DNA intercalating agent ethidium bromide, detectable by its fluorescence emission. […] The Muse^TM Oxidative Stress kit purchased from Millipore (Billerica, MA, USA) was used for this purpose.

Experiment [5] relates to WRL68 cells. The experiment can be described thus: Muse Oxidative Stress kit, ROS production. In kind it is cell-based, human. Conditions: WRL68, IC50, 24 h. As to the method: as §2
Experiment [6] relates to HepG2 cells. The experiment can be described thus: Wound healing (scratch) assay. The format is cell-based, human. Conditions: HepG2, IC50 concentration, 0-42 h. As for the experimental part:
(§3) The wound healing or scratch assay was used to assess the migration capacity of the WRL68 and HepG2 cell lines. With this objective, 3 × 10^5 cells were seeded per well in a 6-well plate in triplicate for each cell line. When the populations reached a confluence of 80–90%, a sterile pipette tip was used to disrupt in a straight line (make a wound) the layer of cells attached to the culture surface. Subsequently, it was washed with PBS to prevent the cells that had been lifted from being able to rejoin. […] Quantification of wound healing was performed by using the MRI-Wound Healing Tool for ImageJ software (ImageJ 1.53a version).

Experiment [7] relates to WRL68 cells. In words: Wound healing (scratch) assay. In kind it is cell-based, human. The note with it: WRL68, IC50 concentration, 0-42 h. As to the method:
as §3

In experiment [8] the test system is HepG2 cells. The experiment can be described thus: Morphological changes, optical microscopy. In kind it is cell-based, human. Conditions: HepG2, IC50, 24 h. As for the experimental part: (§4) Optical microscopy (Olympus® model CX22LED, Tokyo, Japan) images of the cultures were obtained in the mentioned conditions at 10 and 40 magnifications for the cell line each after 24 h of the treatment’s application.

Experiment [9] relates to WRL68 cells. The experiment can be described thus: Morphological changes, optical microscopy. The format is cell-based, human. Conditions: WRL68, IC50, 24 h. As for the experimental part: as §4
Another experiment has as its system MCF-7 cells. Also on record: method as in PMID 21142067. The note with it: MCF-7, 10 and 100 µM; cited from earlier work.
In the next experiment the test system is MDA-MB-231 line. More on the design: method as in PMID 25412049. Conditions: cited from earlier work.

Values after ≈ are worked out from the molar mass of the structure shown.

In the experiment with WRL68 cells [1] (WRL68, 24 h exposure), `C[C@H]1[C@H](C)CC[C@]2(CO)CC[C@]3(C)C(=CC[C@@H]4[C@@]5(C)CC[C@H](O)C(C)(C)[C@@H]5CC[C@]43C)[C@H]12` [uvaol, urs-12-ene-3,28-diol] returned an IC20 of 27.6 ± 2.9 µg/mL (≈ 62.3 µM) and a concentration for half-maximal inhibition (IC50) of 54.3 µg/mL (≈ 123 µM). In addition, in the experiment with WRL68 cells [1] (WRL68, 48 h exposure), it took 13.3 ± 0.8 µg/mL (≈ 30 µM) to reach the 20% level (IC20), the IC50 was 35.9 ± 0.7 µg/mL (≈ 81.1 µM) and it took 79.8 ± 0.6 µg/mL (≈ 180 µM) to reach the 80% level (IC80). In the experiment on WRL68 cells [1] (WRL68, 72 h exposure), the 20% effect level (IC20) was put at 6.8 ± 0.6 µg/mL (≈ 15.4 µM), the half-inhibitory concentration (IC50) came to 19.5 ± 1.1 µg/mL (≈ 44 µM) and the concentration for an effect of 80% (IC80) was found to be 47.2 ± 4.3 µg/mL (≈ 107 µM). In addition, in the experiment with HepG2 cells [2], the “change in percentage of viable cells vs control” value is reported as “significant reduction” and the “change in proportion of apoptotic cells vs control” value is “increasing the proportion of apoptotic cells”. Besides, in the experiment on WRL68 cells [3], the “change in number of apoptotic and necrotic cells vs control” value is on record as “equally significant increase”; the “change in number of viable cells vs control” value was “significant decrease”. Besides, the “change in percentage of cells expressing ROS vs control” value with HepG2 cells [4] is “significant decrease”. For the same compound, the “change in ROS levels vs control” value in the experiment with WRL68 cells [5] was “without significant differences”. For the same compound, the “wound closure (cell migration)” value with HepG2 cells [6] is “the wound remains until the end of the trial”. Further, in the experiment on WRL68 cells [7], the “wound closure (cell migration)” value is given as “wound healing was maintained during more hours than the control group”. In addition, the cell morphology change result in the experiment with HepG2 cells [8] is “slightly more rounded, with very sharp projections and a loss of adhesion to the support”. The cell morphology change entry in the experiment on WRL68 cells [9] was “become rounded and have cytoplasmic projections”. Moreover, the induction of apoptosis result with MCF-7 cells is listed as “did not show this effect”. The “changes in cell cycle progression” value with MDA-MB-231 line is listed as “did not produce changes in the progression of the cycle”.

The IC20 is the concentration at which the effect reaches the 20% level. A word on the IC50: it is the midpoint of a concentration-inhibition curve. Low readings indicate inhibition by little substance, high ones a need for much substance. A word on the IC80: it is the concentration at which the effect reaches the 80% level. Low values mean an effect from little substance, high ones a need for much substance.

The values are drawn from publication PMC7571068, “Antiproliferative and Pro-Apoptotic Effect of Uvaol in Human Hepatocarcinoma HepG2 Cells by Affecting G0/G1 Cell Cycle Arrest, ROS Production and AKT/PI3K Signaling Pathway” (Molecules, 2020).
